Results reported in patent US20250099364A1, “METHOD AND COMPOSITIONS FOR COSMETIC COMPOSITIONS” (MARY KAY INC., priority 2023, published 2025).

Columns and labels:
Format in all cases: cell-based
[1] = system: IL-15 production in keratinocytes; assay: IL-15 production in keratinocytes treated with oxytocin; details: 24 hours
Description: FIG. 4. Keratinocytes were treated with oxytocin for 24 hours.

[2] = system: collagen production in fibroblasts; assay: Collagen production in fibroblasts treated with oxytocin; details: 72 hours
Description: FIG. 2. Fibroblasts were treated with oxytocin for 72 hours.

[3] = system: elastin production in fibroblasts; assay: Elastin production in fibroblasts treated with oxytocin; details: 72 hours
Description: FIG. 3. Fibroblasts were treated with oxytocin for 72 hours.

CC[C@H](C)[C@@H]1NC(=O)[C@H](Cc2ccc(O)cc2)NC(=O)[C@@H](N)CSSC[C@@H](C(=O)N2CCC[C@H]2C(=O)N[C@@H](CC(C)C)C(=O)NCC(N)=O)NC(=O)[C@H](CC(N)=O)NC(=O)[C@H](CCC(N)=O)NC1=O [oxytocin]
increase in IL-15 production compared to untreated control ([1]; 25 ng/mL oxytocin): +50% | increase in IL-15 production compared to untreated control ([1]; 100 ng/mL oxytocin): +90% | increase in IL-15 production compared to untreated control ([1]; 5 μg/mL oxytocin): +121% | increase in IL-15 production compared to untreated control ([1]; 25 μg/mL oxytocin): +165% | increase in IL-15 production compared to untreated control ([1]; 100 μg/mL oxytocin): +331% | increase in collagen production compared to untreated control ([2]; 25 μg/mL oxytocin): +109% | increase in collagen production compared to untreated control ([2]; 100 μg/mL oxytocin): +117% | increase in elastin production compared to untreated control ([3]; 25 ng/mL oxytocin): +166% | increase in elastin production compared to untreated control ([3]; 100 ng/mL oxytocin): +127% | increase in elastin production compared to untreated control ([3]; 25 μg/mL oxytocin): +133% | increase in elastin production compared to untreated control ([3]; 100 μg/mL oxytocin): +117%
